According to patent publication US20180100859A1, “SURROGATE FUNCTIONAL BIOMARKER FOR SOLID TUMOR CANCER” (EUTROPICS PHARMACEUTICALS, INC., priority 2015, published 2018):

Assays:
Type in all cases: cell-based
[1] = target: Bcl-xL/Bim heterodimer in SKBR3 breast cancer cells (Homo sapiens, UniProt Q07817); test: Detection of Bcl-xL/Bim heterodimer with ANTI-HSBXB antibody in treated breast cancer cells, LI-COR imager
Protocol: ABT-263 is a pro-apoptotic compound that can be used on whole cells to disrupt BH3 mediated interactions. Disruption of these heterodimers in treated cells is detected as loss of ANTI-HSBXB signal. Here the cells were treated with various concentrations of ABT-263 for 10 hours at 37° C., then rinsed, fixed with 4% PFA, and incubated with ANTI-HSBXB (a Bcl-xL/Bim heterodimer-specific antibody). IRDye 800CW goat anti-mouse antibody was used to detect the heterodimer specific mouse monoclonal antibody, and IRDye 800CW Goat anti-rabbit antibody was used to detect a commercial Bcl-xL rabbit monoclonal antibody. Cell numbers were normalized by using CellTag 700 Stain.

[2] = test system: AHR cells; test: Mitochondrial (BH3) profiling, Bcl-xL priming; conditions: AHR leukemia cell line, FIG. 3
Description: The Bcl-xL/Bim heterodimer (HSBXB) can be detected by flow cytometry using a method for intracellular staining with the HSBXB antibody. Three leukemia cell lines, AHR, DHL6 and MOLM 13 were chosen based on their having differing amounts of Bcl-xL, Bim priming as determined by mitochondrial profiling. Consequently, the response to the Bcl-xL restricted, the Bcl-xL/Bim dimer “priming”, is known to be present at different amounts. A high signal mediated by Hrk-BH3 peptide indicates the existence of Bcl-xL/Bim heterodimer.
The HSBXB signal was assessed by flow cytometry and compared to the Hrk-BH3 peptide signal in the BH3 profiling assay. Here, AHR, DHL6 and MOLM13 cells were incubated on ice for 3 hours, and then washed and incubated with HSBXB antibody or Bcl-xL antibody at 10 ug/ml for 20 minutes, and then washed and stained with secondary Alexa488-conjugated goat anti-mouse. Signals were corrected to IgG-2A isotype or secondary alone control. The Hrk-BH3 signal in the mitochondrial profiling of the three cell lines was plotted against normalized HSBXB FACS signal.

[3] = test system: Molm 13 cells; test: Mitochondrial (BH3) profiling, Bcl-xL priming; conditions: Molm 13 leukemia cell line, FIG. 3
[4] = test system: DHL-6 cells; test: Mitochondrial (BH3) profiling, Bcl-xL priming; conditions: DHL-6 leukemia cell line, compared with Molm 13, FIG. 3

Bcl-xL/Bim heterodimer in SKBR3 breast cancer cells, sequence (Q07817 whole entry, one chain of several): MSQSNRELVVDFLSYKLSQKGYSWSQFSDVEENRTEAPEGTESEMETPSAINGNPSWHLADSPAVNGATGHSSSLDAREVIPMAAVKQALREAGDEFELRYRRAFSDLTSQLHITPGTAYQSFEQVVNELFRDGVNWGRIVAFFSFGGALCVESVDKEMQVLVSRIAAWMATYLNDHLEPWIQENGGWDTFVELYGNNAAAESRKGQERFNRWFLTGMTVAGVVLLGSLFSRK

time window where the disruption can be detected prior to caspase mediated membrane disruption [1]	Molecule	percent heterodimer specific signal (ANTI-HSBXB detection) ([1]; various concentrations, 10 hours at 37° C., FIG. 2)	degree of Bcl-xL priming relative to positive control [2]	degree of Bcl-xL priming relative to positive control [3]	degree of Bcl-xL priming relative to positive control [4]
10 to 12 h	CC1(C)CCC(c2ccc(Cl)cc2)=C(CN2CCN(c3ccc(C(=O)NS(=O)(=O)c4ccc(N[C@H](CCN5CCOCC5)CSc5ccccc5)c(S(=O)(=O)C(F)(F)F)c4)cc3)CC2)C1 [ABT-263]	decreasing the quantity of ANTI-HSBXB detection	–	–	–
–	Hrk-BH3: BH3 peptide HRK, SSAAQLTAARLKALGDELHQ, SEQ ID NO 8; Bcl-xL restricted (listed as Homo sapiens)	–	above 60%	less than 5%	slightly higher
